According to ChEMBL document CHEMBL1201862, “PubChem BioAssay data set” (2004):
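1) Cells in 96-well plates. 2) Compound, 48 h, 5 concentrations. 3) Linear interpolation between surrounding doses. 4) Unreached endpoint = highest concentration. GI50 marks 50% less growth.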 Activity calls are given as the source filed them. Rule as the data show it: active = GI50 up to about 1.1 µM and inactive = higher.

Tests used:
Assay in all cases: inhibition of tumour cell growth, NCI panel, 48 h
NCI-H522 = test system: NCI-H522
CCRF-CEM = test system: CCRF-CEM
U-251 = test system: U-251
HCT-116 = test system: HCT-116
SW-620 = test system: SW-620
Malme-3M = test system: Malme-3M
IGROV-1 = test system: IGROV-1
A549 = test system: A549
OVCAR-5 = test system: OVCAR-5
ACHN = test system: ACHN
HL-60 = test system: HL-60
UO-31 = test system: UO-31
HCC 2998 = test system: HCC 2998
M14 = test system: M14
LOX IMVI = test system: LOX IMVI
NCI-H460 = test system: NCI-H460
COLO 205 = test system: COLO 205

| Structure (SMILES) | GI50 (NCI-H522) | GI50 (CCRF-CEM) | GI50 (U-251) | GI50 (HCT-116) | GI50 (SW-620) | GI50 (Malme-3M) | GI50 (IGROV-1) | GI50 (A549) | GI50 (OVCAR-5) | GI50 (ACHN) | GI50 (HL-60) | GI50 (UO-31) | GI50 (HCC 2998) | GI50 (M14) | GI50 (LOX IMVI) | GI50 (NCI-H460) | GI50 (COLO 205) |
| --- | --- | --- | --- | --- | --- | --- | --- | --- | --- | --- | --- | --- | --- | --- | --- | --- | --- |
| COC(=O)c1nc(-c2ccc(Cl)c(Cl)c2)nc2ccccc12 | > 100 µM (inactive) | > 100 µM (inactive) | 21.2 µM (inactive) | 13.1 µM (inactive) | > 21 µM (inactive) | > 100 µM (inactive) | 48.9 µM (inactive) | 34.9 µM (inactive) | > 100 µM (inactive) | 50.5 µM (inactive) | > 100 µM (inactive) | 43.4 µM (inactive) | > 100 µM (inactive) | > 24.1 µM (inactive) | > 100 µM (inactive) | > 34 µM (inactive) | – |
| COC(=O)C(Cl)=C1CC1 | 17.6 µM (inactive) | 14.3 µM (inactive) | – | – | 18.3 µM (inactive) | 21.1 µM (inactive) | > 100 µM (inactive) | > 100 µM (inactive) | > 100 µM (inactive) | 21.5 µM (inactive) | 19.7 µM (inactive) | 31.4 µM (inactive) | 31.7 µM (inactive) | 16.2 µM (inactive) | 16.7 µM (inactive) | > 100 µM (inactive) | 19.9 µM (inactive) |
| NCCCOc1ccc([N+](=O)[O-])cc1Cl | 5.62 µM (inactive) | 42.9 µM (inactive) | > 100 µM (inactive) | > 100 µM (inactive) | > 100 µM (inactive) | > 100 µM (inactive) | > 100 µM (inactive) | > 100 µM (inactive) | > 100 µM (inactive) | > 100 µM (inactive) | > 100 µM (inactive) | 81.8 µM (inactive) | > 100 µM (inactive) | > 100 µM (inactive) | – | > 100 µM (inactive) | > 100 µM (inactive) |
| O=C(O)C(CO)NC(=O)n1c2ccccc2c2ccccc21 (stereo not drawn) | > 100 µM (inactive) | > 100 µM (inactive) | – | > 100 µM (inactive) | > 100 µM (inactive) | > 100 µM (inactive) | > 100 µM (inactive) | > 100 µM (inactive) | – | > 100 µM (inactive) | > 100 µM (inactive) | – | > 100 µM (inactive) | – | > 100 µM (inactive) | > 100 µM (inactive) | > 100 µM (inactive) |
| c1ccc2c(c1)CCc1cc3cc4c(nc3nc1-2)-c1ccccc1CC4 | > 100 µM (inactive) | > 100 µM (inactive) | > 100 µM (inactive) | > 100 µM (inactive) | > 100 µM (inactive) | > 100 µM (inactive) | > 100 µM (inactive) | > 100 µM (inactive) | – | > 100 µM (inactive) | > 100 µM (inactive) | > 100 µM (inactive) | > 100 µM (inactive) | > 100 µM (inactive) | > 100 µM (inactive) | > 100 µM (inactive) | > 100 µM (inactive) |
| Cc1cc(Cl)ccc1NC(=O)C1C(=O)N(c2ccc(Cl)cc2C)C(=O)/C1=N\NC(N)=S (stereo not drawn) | 17.1 µM (inactive) | 22.5 µM (inactive) | 19.6 µM (inactive) | 21.9 µM (inactive) | 29.7 µM (inactive) | 18.7 µM (inactive) | – | 35.4 µM (inactive) | 24.3 µM (inactive) | 36.2 µM (inactive) | 20.1 µM (inactive) | 17 µM (inactive) | 20.8 µM (inactive) | 28.2 µM (inactive) | – | 31.6 µM (inactive) | 32.1 µM (inactive) |
| CCCCN(CCCC)C(=O)C(=O)C(C)C(=O)CC (stereo not drawn) | > 100 µM (inactive) | – | > 100 µM (inactive) | – | > 100 µM (inactive) | > 100 µM (inactive) | > 100 µM (inactive) | > 100 µM (inactive) | > 100 µM (inactive) | > 100 µM (inactive) | > 100 µM (inactive) | > 100 µM (inactive) | > 100 µM (inactive) | > 100 µM (inactive) | > 100 µM (inactive) | > 100 µM (inactive) | > 100 µM (inactive) |
| CC1=C(C(=O)Nc2ccccc2C)C(c2ccco2)C(C(=O)Nc2ccccc2C)=C(C)N1C | > 100 µM (inactive) | 50 µM (inactive) | > 100 µM (inactive) | > 100 µM (inactive) | > 100 µM (inactive) | > 100 µM (inactive) | > 100 µM (inactive) | > 100 µM (inactive) | > 100 µM (inactive) | > 100 µM (inactive) | > 100 µM (inactive) | > 100 µM (inactive) | > 100 µM (inactive) | > 100 µM (inactive) | > 100 µM (inactive) | > 100 µM (inactive) | – |
| C/C(=N\NS(=O)(=O)c1ccc(C)cc1)c1cc2ccccc2n1C | > 100 µM (inactive) | > 100 µM (inactive) | 63.8 µM (inactive) | > 100 µM (inactive) | > 100 µM (inactive) | > 100 µM (inactive) | > 100 µM (inactive) | > 100 µM (inactive) | – | > 100 µM (inactive) | > 100 µM (inactive) | > 100 µM (inactive) | > 100 µM (inactive) | > 100 µM (inactive) | > 100 µM (inactive) | > 100 µM (inactive) | > 100 µM (inactive) |
| CCc1cccc(C)c1NC(C)=O | – | > 100 µM (inactive) | > 100 µM (inactive) | > 100 µM (inactive) | > 100 µM (inactive) | > 100 µM (inactive) | > 100 µM (inactive) | > 100 µM (inactive) | > 100 µM (inactive) | > 100 µM (inactive) | > 100 µM (inactive) | > 100 µM (inactive) | > 100 µM (inactive) | > 100 µM (inactive) | – | > 100 µM (inactive) | – |
| COC(=O)[C@@]12OC[C@]34C([C@@H](O)C1O)[C@@]1(C)CC(=O)C(OC(=O)CC(C)C(F)(F)F)=C(C)C1C[C@H]3OC(=O)[C@H](O)[C@H]42 (stereo partly drawn) | 3.46 µM (inactive) | 4.03 µM (inactive) | 4.79 µM (inactive) | 2.47 µM (inactive) | 1.21 µM (inactive) | 0.215 µM (active) | 2.22 µM (inactive) | 17.3 µM (inactive) | 19.6 µM (inactive) | 8.22 µM (inactive) | 0.268 µM (active) | 10.6 µM (inactive) | 2 µM (inactive) | 1.99 µM (inactive) | – | 1.77 µM (inactive) | 6.81 µM (inactive) |
| CCCCCCCCCCCCCCCCOCC(CP(=O)([O-])OCC[n+]1ccccc1)OC (stereo not drawn) | 17.3 µM (inactive) | 8.2 µM (inactive) | – | 9.66 µM (inactive) | 14.9 µM (inactive) | 17.8 µM (inactive) | 3.84 µM (inactive) | 10.6 µM (inactive) | – | – | 1.76 µM (inactive) | 9.4 µM (inactive) | 2.45 µM (inactive) | 5.6 µM (inactive) | – | – | 6.46 µM (inactive) |
| CCOC(C)C(/C=N/NC(N)=S)=NNC(N)=S (stereo not drawn) [GLOXAZONE] | 26.2 µM (inactive) | < 0.0208 µM (active) | 1.07 µM (active) | – | > 100 µM (inactive) | 92.3 µM (inactive) | – | > 100 µM (inactive) | > 100 µM (inactive) | > 100 µM (inactive) | 0.0531 µM (active) | – | > 100 µM (inactive) | – | > 100 µM (inactive) | > 100 µM (inactive) | > 100 µM (inactive) |
